# Measurements from patent publication US8415469B2, “Compounds and methods for kinase modulation, and indications therefor” (Plexxikon Inc., priority 2005, dated 2013).
# Columns and labels:
# Format in all cases: biochemical
# [1] = biological target: T1, Kdr (Homo sapiens, UniProt P35968); assay: Z'-Lyte FRET kinase assay (Invitrogen), Kdr; details: read-out: IC50, activity toward kinase Kdr
# T1 construct: purchased Invitrogen (assay run by Invitrogen)
# [2] = biological target: MAP4K4 (Homo sapiens, UniProt O95819); assay: AlphaScreen kinase assay, MAP4K4; details: read-out: IC50, activity toward kinase MAP4K4
# Sequence of MAP4K4 (O95819 whole entry): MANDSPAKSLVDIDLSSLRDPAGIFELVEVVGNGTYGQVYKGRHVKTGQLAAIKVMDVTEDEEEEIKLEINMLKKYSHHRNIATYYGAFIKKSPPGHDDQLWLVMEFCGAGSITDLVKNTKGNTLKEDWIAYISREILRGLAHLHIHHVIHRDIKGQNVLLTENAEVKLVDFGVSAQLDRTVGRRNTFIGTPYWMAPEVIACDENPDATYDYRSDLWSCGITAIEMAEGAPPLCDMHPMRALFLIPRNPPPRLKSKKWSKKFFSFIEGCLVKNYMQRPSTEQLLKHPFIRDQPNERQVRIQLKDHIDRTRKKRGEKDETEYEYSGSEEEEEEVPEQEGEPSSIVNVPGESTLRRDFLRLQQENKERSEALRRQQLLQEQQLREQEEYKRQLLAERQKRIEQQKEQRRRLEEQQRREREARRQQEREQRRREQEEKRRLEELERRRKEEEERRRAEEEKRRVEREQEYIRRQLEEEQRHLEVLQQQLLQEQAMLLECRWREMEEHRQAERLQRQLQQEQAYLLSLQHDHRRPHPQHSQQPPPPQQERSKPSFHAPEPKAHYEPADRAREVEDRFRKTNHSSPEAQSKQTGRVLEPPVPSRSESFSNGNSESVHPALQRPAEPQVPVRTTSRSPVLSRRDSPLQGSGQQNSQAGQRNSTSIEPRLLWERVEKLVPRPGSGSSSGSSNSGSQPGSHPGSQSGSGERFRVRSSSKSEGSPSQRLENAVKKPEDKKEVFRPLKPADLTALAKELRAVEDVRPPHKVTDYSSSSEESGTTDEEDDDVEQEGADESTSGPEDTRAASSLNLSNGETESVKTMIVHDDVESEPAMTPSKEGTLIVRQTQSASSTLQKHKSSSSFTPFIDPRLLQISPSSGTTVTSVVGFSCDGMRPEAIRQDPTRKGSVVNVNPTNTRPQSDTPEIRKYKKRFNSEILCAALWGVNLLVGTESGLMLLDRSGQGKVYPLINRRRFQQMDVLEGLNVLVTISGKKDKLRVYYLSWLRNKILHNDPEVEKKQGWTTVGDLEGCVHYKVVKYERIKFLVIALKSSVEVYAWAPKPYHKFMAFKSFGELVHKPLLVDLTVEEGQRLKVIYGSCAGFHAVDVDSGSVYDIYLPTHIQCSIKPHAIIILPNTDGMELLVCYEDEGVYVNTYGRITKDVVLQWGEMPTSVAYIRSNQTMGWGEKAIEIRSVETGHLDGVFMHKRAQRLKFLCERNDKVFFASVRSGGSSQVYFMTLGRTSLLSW
# [3] = biological target: T2, Stk6 (Homo sapiens, UniProt O14965); assay: Z'-Lyte FRET kinase assay (Invitrogen), Stk6; details: read-out: IC50, activity toward kinase Stk6
# T2 construct: purchased Invitrogen (Carlsbad, Calif.), screening service
# T2 sequence (O14965 1-403): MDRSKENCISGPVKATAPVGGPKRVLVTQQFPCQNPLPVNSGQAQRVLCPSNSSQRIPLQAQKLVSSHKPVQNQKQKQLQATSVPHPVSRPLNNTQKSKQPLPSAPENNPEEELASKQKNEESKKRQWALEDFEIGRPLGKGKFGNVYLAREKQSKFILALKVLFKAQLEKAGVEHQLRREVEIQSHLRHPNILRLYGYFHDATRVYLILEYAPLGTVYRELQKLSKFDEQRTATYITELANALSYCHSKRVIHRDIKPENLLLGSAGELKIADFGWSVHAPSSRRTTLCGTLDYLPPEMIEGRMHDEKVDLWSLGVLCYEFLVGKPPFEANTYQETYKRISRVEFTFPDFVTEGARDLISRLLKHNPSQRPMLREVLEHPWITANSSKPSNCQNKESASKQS
# [4] = biological target: T3, B-Raf V600E (Homo sapiens, UniProt P15056, V600E); assay: AlphaScreen kinase assay, B-Raf V600E; details: read-out: IC50, activity toward kinase B-Raf V600E
# T3 construct: P4254. pFastBacBD-CDC37 BRAF D437-K722-X, V600E; His6 with pFastBac HT leader (TEV site) (N); made in house; host or cells: Sf9 (baculovirus; chaperone CDC37 co-expressed)
# T3 sequence (P15056 with tags, fused parts or gaps V600E): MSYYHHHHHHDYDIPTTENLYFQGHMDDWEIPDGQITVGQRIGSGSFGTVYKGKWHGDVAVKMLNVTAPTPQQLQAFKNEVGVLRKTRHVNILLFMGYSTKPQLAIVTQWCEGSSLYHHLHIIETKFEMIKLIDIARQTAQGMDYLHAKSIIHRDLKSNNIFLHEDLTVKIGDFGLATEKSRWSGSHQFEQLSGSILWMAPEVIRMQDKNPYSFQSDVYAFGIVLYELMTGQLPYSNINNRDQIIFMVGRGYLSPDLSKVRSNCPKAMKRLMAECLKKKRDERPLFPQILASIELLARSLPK
# [5] = biological target: T4, Jnk3 (Homo sapiens, UniProt P53779); assay: AlphaScreen kinase assay, Jnk3; details: read-out: IC50, activity toward kinase Jnk3
# T4 construct: purchased Upstate Biotechnology
# T4 sequence (P53779 whole entry): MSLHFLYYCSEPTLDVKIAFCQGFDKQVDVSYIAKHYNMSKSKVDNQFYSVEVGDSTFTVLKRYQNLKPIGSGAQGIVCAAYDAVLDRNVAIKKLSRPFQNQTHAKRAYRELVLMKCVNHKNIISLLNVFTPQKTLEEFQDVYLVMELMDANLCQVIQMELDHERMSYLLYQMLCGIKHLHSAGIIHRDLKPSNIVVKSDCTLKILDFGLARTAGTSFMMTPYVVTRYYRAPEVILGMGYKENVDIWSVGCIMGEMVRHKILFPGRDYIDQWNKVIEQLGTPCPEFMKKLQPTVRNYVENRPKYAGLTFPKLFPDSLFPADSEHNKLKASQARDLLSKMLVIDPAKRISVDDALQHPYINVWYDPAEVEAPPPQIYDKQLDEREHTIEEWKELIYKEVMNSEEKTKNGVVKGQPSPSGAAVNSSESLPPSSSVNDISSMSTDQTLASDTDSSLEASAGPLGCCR
# [6] = biological target: T5, Kit (Homo sapiens, UniProt P10721); assay: AlphaScreen kinase assay, Kit; details: read-out: IC50, activity toward kinase Kit
# T5 construct: P1332.N6 BI PTP KIT M552-K948-X COD; His6 (N); made in house; host or cells: E. coli (PTP1B co-expressed)
# T5 sequence (P10721 with tags, fused parts or gaps): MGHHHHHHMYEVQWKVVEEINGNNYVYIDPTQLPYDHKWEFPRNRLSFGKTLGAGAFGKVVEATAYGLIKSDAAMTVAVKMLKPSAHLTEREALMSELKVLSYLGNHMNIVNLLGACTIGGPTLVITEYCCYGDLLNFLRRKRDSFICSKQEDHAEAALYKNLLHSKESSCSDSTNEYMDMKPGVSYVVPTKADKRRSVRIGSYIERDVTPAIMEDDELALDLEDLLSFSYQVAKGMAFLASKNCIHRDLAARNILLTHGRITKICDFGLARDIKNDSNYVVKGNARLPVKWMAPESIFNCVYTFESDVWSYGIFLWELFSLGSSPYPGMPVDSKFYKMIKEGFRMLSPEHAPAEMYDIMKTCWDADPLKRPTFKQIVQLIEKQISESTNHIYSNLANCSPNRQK
# [7] = biological target: T6, Flt1 (Homo sapiens, UniProt P17948); assay: AlphaScreen kinase assay, Flt1; details: read-out: IC50, activity toward kinase Flt1
# T6 construct: P1826.pETN6 BI-PTP FLT1 M799-D1165-X WT; His6 (N); made in house; host or cells: E. coli (PTP1B co-expressed)
# T6 sequence (P17948 with tags, fused parts or gaps): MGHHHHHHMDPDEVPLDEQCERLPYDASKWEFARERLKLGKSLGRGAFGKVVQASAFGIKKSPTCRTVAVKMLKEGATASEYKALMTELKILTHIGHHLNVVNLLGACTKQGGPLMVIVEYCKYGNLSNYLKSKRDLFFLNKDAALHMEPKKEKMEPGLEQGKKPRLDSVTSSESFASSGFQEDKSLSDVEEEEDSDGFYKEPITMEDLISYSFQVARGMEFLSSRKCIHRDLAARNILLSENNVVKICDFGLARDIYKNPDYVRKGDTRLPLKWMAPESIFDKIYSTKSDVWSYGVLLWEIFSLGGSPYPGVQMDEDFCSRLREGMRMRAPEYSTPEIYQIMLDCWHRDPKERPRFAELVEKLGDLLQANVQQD
# [8] = biological target: T7, FGFR1 (Homo sapiens, UniProt P11362, C488A/C584S); assay: AlphaScreen kinase assay, FGFR1; details: read-out: IC50, activity toward kinase FGFR
# T7 construct: P1351.pET N6 BI-PTP FGFR A458-E765-X C488A, C584S; made in house; host or cells: E. coli (PTP1B co-expressed)
# T7 sequence (P11362 458-765 C488A/C584S): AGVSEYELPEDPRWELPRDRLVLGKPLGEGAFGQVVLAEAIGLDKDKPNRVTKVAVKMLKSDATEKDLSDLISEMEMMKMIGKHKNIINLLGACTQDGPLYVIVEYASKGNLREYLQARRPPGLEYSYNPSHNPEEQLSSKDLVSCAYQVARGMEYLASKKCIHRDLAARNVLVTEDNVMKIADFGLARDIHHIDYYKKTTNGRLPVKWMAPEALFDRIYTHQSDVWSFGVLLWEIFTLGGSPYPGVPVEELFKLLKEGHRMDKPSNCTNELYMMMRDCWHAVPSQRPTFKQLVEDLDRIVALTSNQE
# [9] = biological target: T8, Pyk2 (Homo sapiens, UniProt Q14289); assay: AlphaScreen kinase assay, Pyk2; details: read-out: IC50, activity toward kinase Pyk2
# T8 construct: purchased Upstate Biotechnology
# [10] = biological target: T9, Fms (Homo sapiens, UniProt P07333); assay: AlphaScreen kinase assay, Fms; details: read-out: IC50, activity toward kinase Fms
# T9 construct: purchased Upstate Biotechnology
# T9 sequence (P07333 20-972): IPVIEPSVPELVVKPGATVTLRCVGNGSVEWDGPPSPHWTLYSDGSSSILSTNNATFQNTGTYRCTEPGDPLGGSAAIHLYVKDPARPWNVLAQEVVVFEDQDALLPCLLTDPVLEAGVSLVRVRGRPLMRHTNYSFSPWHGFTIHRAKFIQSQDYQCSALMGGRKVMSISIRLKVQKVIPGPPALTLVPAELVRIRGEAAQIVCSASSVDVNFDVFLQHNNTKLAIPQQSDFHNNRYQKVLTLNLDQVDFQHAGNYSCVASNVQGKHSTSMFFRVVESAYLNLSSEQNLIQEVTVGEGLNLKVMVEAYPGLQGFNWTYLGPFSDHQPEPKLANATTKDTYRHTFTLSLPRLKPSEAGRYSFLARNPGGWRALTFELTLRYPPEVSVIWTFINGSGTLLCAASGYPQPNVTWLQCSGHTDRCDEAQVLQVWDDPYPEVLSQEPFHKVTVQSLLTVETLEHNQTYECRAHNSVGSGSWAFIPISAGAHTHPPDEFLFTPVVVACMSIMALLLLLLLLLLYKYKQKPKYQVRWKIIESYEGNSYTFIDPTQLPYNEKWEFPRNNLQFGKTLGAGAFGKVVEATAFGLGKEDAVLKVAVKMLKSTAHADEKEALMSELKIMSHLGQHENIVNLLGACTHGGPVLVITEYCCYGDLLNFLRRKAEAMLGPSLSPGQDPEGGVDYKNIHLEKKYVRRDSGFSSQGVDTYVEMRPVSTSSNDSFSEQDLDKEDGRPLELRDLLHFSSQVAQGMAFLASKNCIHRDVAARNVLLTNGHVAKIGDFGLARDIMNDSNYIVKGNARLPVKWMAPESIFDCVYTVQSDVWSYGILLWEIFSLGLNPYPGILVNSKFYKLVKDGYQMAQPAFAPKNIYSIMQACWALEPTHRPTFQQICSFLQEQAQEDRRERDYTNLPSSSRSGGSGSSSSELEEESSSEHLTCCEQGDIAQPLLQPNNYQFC
# [11] = biological target: T10, Fak (Homo sapiens, UniProt Q05397); assay: AlphaScreen kinase assay, Fak; details: read-out: IC50, activity toward kinase Fak
# T10 construct: P1358.pFastBacHtb FAK S411-Q686-X; His6 with pFastBacHTb leader (TEV site) (N); made in house; host or cells: Sf9 (baculovirus)
# [12] = biological target: T11, B-Raf (Homo sapiens, UniProt P15056); assay: AlphaScreen kinase assay, B-Raf; details: read-out: IC50, activity toward kinase B-Raf
# T11 construct: purchased Upstate Biotechnology
# [13] = biological target: T12, Jnk1 (Homo sapiens, UniProt P45983); assay: AlphaScreen kinase assay, Jnk1; details: read-out: IC50, activity toward kinase Jnk1
# T12 construct: purchased Upstate Biotechnology
# [14] = biological target: T13, Jnk2 (Homo sapiens, UniProt P45984); assay: AlphaScreen kinase assay, Jnk2; details: read-out: IC50, activity toward kinase Jnk2
# T13 construct: purchased Roche Protein Expression Group (Indianapolis, IN)
# Method in brief: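 Biotinylated peptide substrate is phosphorylated by kinase; anti-phosphopeptide antibody on acceptor beads and streptavidin donor beads bring emission when substrate is phosphorylated. Inhibition lowers acceptor signal. Compounds from 20 mM DMSO stock tested as 8-point 1:3 serial dilutions.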
# [15] = biological target: T14, c-Raf-1 (Homo sapiens, UniProt P04049); assay: AlphaScreen kinase assay, c-Raf-1; details: read-out: IC50, activity toward kinase c-Raf-1
# T14 construct: purchased Upstate Biotechnology
# [16] = biological target: T15, Ret (Homo sapiens, UniProt P07949); assay: AlphaScreen kinase assay, Ret; details: read-out: IC50, activity toward kinase Ret
# T15 construct: P1378.pET-SF BI-PTP RET H661-R1012 HIS; made in house
# T15 sequence (P07949 with tags, fused parts or gaps): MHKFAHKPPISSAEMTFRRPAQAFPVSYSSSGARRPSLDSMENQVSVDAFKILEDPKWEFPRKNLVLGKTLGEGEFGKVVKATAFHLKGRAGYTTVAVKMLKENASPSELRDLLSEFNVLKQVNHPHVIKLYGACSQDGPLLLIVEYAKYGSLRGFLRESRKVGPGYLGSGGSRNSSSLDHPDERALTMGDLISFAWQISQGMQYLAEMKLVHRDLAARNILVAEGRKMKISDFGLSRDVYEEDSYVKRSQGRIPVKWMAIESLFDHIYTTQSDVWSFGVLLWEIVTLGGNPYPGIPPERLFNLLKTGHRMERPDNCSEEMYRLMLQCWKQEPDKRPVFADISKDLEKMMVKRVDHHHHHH
# T1 sequence (P35968 20-1356): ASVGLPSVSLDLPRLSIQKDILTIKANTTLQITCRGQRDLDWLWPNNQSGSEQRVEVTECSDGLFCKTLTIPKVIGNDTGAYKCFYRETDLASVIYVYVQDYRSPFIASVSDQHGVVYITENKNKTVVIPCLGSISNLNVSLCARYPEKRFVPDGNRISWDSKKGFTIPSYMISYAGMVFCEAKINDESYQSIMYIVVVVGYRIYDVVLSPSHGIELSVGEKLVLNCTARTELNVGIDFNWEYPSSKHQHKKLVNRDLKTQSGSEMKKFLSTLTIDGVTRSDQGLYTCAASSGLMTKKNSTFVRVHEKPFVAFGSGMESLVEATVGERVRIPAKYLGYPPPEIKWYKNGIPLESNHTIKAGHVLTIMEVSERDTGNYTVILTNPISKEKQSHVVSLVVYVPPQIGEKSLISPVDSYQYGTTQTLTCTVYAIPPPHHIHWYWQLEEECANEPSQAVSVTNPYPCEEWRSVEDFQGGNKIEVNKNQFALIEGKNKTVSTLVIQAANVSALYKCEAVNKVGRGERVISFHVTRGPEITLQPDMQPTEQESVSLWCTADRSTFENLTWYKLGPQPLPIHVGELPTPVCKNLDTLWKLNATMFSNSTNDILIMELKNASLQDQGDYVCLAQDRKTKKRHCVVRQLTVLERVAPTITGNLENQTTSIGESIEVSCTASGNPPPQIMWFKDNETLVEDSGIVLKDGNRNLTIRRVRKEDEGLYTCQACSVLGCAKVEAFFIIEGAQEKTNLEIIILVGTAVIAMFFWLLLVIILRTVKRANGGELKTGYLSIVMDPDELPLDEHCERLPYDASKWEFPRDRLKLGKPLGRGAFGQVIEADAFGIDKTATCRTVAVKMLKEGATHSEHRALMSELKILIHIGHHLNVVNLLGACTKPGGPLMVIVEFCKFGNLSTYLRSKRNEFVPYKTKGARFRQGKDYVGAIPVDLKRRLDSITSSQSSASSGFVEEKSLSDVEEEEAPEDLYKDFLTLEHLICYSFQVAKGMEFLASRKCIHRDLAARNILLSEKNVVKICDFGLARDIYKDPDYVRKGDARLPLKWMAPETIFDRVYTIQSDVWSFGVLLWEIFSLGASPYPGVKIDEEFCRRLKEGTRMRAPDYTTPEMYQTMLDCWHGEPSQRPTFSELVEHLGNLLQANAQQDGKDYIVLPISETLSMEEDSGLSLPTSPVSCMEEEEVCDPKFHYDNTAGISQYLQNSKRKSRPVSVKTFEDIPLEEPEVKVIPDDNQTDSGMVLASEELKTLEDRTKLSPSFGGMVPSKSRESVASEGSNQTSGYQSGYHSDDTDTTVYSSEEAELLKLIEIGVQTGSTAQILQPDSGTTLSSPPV
Structure (SMILES),IC50 [1] [µM],IC50 [2] [µM],IC50 [3] [µM],IC50 [4] [µM],IC50 [5] [µM],IC50 [6] [µM],IC50 [8] [µM],IC50 [10] [µM],other results
COc1ccc(-c2cnc3[nH]cc(C#Cc4cccc(C(=O)O)c4)c3c2)cc1OC [Compound P-0174],≤ 10,≤ 10,≤ 10,≤ 10,–,–,–,–,–
c1cncc(-c2cnc3[nH]ccc3c2)c1 [Compound P-0176],≤ 10,≤ 10,≤ 10,–,≤ 10,≤ 10,–,–,–
OCCOc1cccc(Cc2c[nH]c3ncc(-c4ccsc4)cc23)c1 [Compound P-0287],≤ 10,≤ 10,≤ 10,≤ 10,–,≤ 10,≤ 10,≤ 10,IC50 [9]: ≤ 10 µM; IC50 [7]: ≤ 10 µM
COc1cccc(Cc2c[nH]c3ncc(-c4ccsc4)cc23)n1 [Compound P-0300],–,≤ 10,≤ 10,–,≤ 10,≤ 10,–,–,–
"CS(=O)(=O)Nc1ccc(Cl)c(C(=O)c2c[nH]c3ncc(-c4cccnc4)cc23)c1F [Compound P-0734, N-[4-Chloro-2-fluoro-3-(5-pyridin-3-yl-1H-pyrrolo[2,3-b]pyridine-3-carbonyl)-phenyl]-methanesulfonamide]",–,≤ 10,–,≤ 10,≤ 10,–,≤ 10,–,IC50 [12]: ≤ 10 µM; IC50 [13]: ≤ 10 µM; IC50 [14]: ≤ 10 µM; IC50 [15]: ≤ 10 µM; IC50 [16]: ≤ 10 µM

# Further lines, with some results ahead:
IC50 [1] [µM],IC50 [2] [µM],IC50 [3] [µM],IC50 [4] [µM],IC50 [5] [µM],IC50 [6] [µM],IC50 [8] [µM],IC50 [10] [µM],Structure (SMILES),other results
≤ 10,≤ 10,≤ 10,–,–,–,–,–,c1cnc2[nH]cc(Sc3ccncc3)c2c1 [Compound P-0131],–
–,≤ 10,≤ 10,–,–,–,–,–,c1ccc(Sc2c[nH]c3ncccc23)nc1 [Compound P-0214],IC50 [7]: ≤ 10 µM
–,≤ 10,≤ 10,–,–,–,–,≤ 10,Clc1ncccc1Cc1c[nH]c2ncccc12 [Compound P-0317],–
≤ 10,≤ 10,–,–,–,≤ 10,≤ 10,≤ 10,COc1cc(Cc2c[nH]c3ncccc23)cc(OC)c1 [Compound P-0391],IC50 [11]: ≤ 10 µM
